“Also recorded” adds a separate entry of the source. Where two headings read alike, the source gives them in different places.
What was measured:
[1] = system: E304 endothelial cells (expressing mainly ERα); assay: DNA synthesis by [3H]-thymidine incorporation in E304 cells; assay type: cell-based, human
Experimental: E304 cells, expressing mainly ERα, an endothelial cell line derived from a human umbilical vein, were purchased from American Type Culture Collection (ATCC), Rockville, Md., and grown in medium 199 containing 10% FCS, glutamine and antibiotics.
(§1) Assessment of DNA synthesis was performed by [^3H]-thymidine incorporation in these cells. Cells were grown until subconfluence and then treated with various hormones or agents as indicated. Forty-eight hours later, [^3H] thymidine was added for two hours. Cells were then treated with 10% ice-cold trichloroacetic (TCA) for 5 min and washed twice with 5% TCA and then with cold ethanol. The cellular layer was dissolved in 0.3 ml of 0.3M NaOH, samples were taken and [^3H] thymidine incorporation into DNA was determined. The concentration of hormone to produce half-maximal induction (EC50) or inhibition (IC50) was calculated from the dose response curves.
(§2) In the second phase the cytotoxicity of isoflavone-daunomycin conjugates was tested after 48 h of incubation in normal cells [VSMC, E304, non transformed enterocytes (TEC)] and malignant cells [human adrenocortical carcinoma (NCI-H295R), human colon cancer cells (colo320) and c-K-ras transformed rat enterocytes (R1)] using uptake of [^3H]-thymidine as a proliferation marker.

[2] = system: human adrenocortical carcinoma cells (NCI-H295R); assay: cells; assay type: cell-based; conditions: for IC50: read-out: concentration required for 50% inhibition of DNA synthesis (IC50), NCI-H295R
Experimental: These cells were purchased from ATTC (Rockville, Md.) and grown in Dulbecco's modified Eagle's medium containing antibiotics.
as §1, §2

[3] = system: human colon cancer cells (colo320); assay: DNA synthesis by [3H]-thymidine incorporation in colo320 cells; assay type: cell-based
Experimental: These cells were purchased from ATTC (Rockville, Md.) and grown in RPMI medium containing 20 mM HEPES and 10% fetal calf serum.
as §1, §2

[4] = system: human vascular smooth muscle cells (VSMC), expressing mainly ERβ; assay: cells; assay type: cell-based
Experimental: Human umbilical artery smooth muscle cells, expressing mainly ERβ, were prepared as previously described with minor modifications (Somjen D. et al. 1998 Hypertension 32:39-45). In brief, umbilical cords were collected shortly after delivery. The umbilical arteries were isolated by dissection, cleaned of blood and adventitia and then cut into tiny slices (1-3 mm). The segments were kept in culture in medium 199 containing 20% FCS, glutamine and antibiotics. […] Cells were fed twice a week and, upon confluence, trypsinized and transferred to 24-well dishes. Cells were used only at passages 1-3 when expression of smooth muscle actin was clearly demonstrable.
as §1, §2

[5] = system: c-K-ras transformed rat enterocytes (R1); assay: cells; assay type: cell-based; conditions: read-out: concentration required for 50% inhibition of DNA synthesis (IC50), R1
Experimental: (§3) Cell lines were obtained from Prof. N. Arber, Ichilov Hospital, Tel-Aviv, Israel and grown as described previously (Arber N et al. 1996 Oncogene 12:1903-1908).
as §1, §2

[6] = system: nontransformed rat enterocytes (IEC); assay: cells; assay type: cell-based; conditions: read-out: concentration required for 50% inhibition of DNA synthesis (IC50), IEC
Experimental: as §3, §1, §2

Recombinant ERα protein = biological target: T1, Recombinant ERα protein (Homo sapiens, UniProt P03372); assay: Estrogen receptor-binding assay, [3H]-17β-estradiol displacement, ERα; conditions: result in words
T1 sequence (P03372 1-595): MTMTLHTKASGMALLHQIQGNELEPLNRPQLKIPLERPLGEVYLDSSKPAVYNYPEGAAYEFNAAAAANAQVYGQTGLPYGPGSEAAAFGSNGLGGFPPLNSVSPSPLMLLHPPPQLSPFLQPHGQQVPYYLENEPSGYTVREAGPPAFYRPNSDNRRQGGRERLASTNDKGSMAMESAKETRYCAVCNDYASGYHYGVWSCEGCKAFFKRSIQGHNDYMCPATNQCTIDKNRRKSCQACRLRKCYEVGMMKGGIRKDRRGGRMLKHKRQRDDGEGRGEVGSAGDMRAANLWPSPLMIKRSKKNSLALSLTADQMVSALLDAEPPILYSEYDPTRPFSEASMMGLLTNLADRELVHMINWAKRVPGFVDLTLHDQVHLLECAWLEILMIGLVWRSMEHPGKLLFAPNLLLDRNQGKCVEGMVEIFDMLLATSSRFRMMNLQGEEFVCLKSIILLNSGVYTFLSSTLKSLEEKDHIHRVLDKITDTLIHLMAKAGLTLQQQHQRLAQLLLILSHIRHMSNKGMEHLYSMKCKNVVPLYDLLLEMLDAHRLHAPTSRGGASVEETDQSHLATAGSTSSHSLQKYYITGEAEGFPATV
Experimental: (§4) Biotinylated anti-ER antibody (α or β, prepared as described in Strasburger C J & Kohen F 1990 Methods Enzymol. 184:481-496), 100 ng/well in 100 μl of binding buffer, was added to each well, and the reaction mixtures were incubated with shaking for 2 h and 30 min at room temperature. The reaction mixtures were then decanted, and each well was washed once with binding buffer. Dilute sodium hydroxide (0.1 N, 300 μl) was added to each well. After shaking for 20 min, an aliquot (200 μl) was removed from each well and added to a vial containing scintillation fluid. The vials were then counted for radioactivity in a beta scintillation counter.

Recombinant ERβ protein = Recombinant ERβ protein (Homo sapiens, UniProt Q92731); assay: Estrogen receptor-binding assay, [3H]-17β-estradiol displacement, ERβ; conditions: for binding activity to ERβ: result in words
Experimental: as §4

[7] = system: creatine kinase (CK) specific activity, an estrogen responsive enzyme; assay: Stimulation of the specific activity of creatine kinase (CK) in rat tissues in vivo; conditions: for CK specific activity (experimental/control), aorta: Ao; for CK specific activity (experimental/control), aorta / CK specific activity (experimental/control), diaphysis / CK specific activity (experimental/control), epiphysis / CK specific activity (experimental/control), left ventricle of the heart / CK specific activity (experimental/control), pituitary / CK specific activity (experimental/control), uterus: immature female rats, i.p., 24 h, mean ± SD, n = 5, control = 1.0; for CK specific activity (experimental/control), diaphysis: Dia; for CK specific activity (experimental/control), epiphysis: Epi; for CK specific activity (experimental/control), left ventricle of the heart: LV; for CK specific activity (experimental/control), pituitary: Pi; for CK specific activity (experimental/control), uterus: Ut; for effect on CK specific activity in rat tissues (in words): uterus, pituitary, epiphysis, diaphysis, aorta, left ventricle
Experimental: The ability of the isoflavone derivatives to bind estrogen receptor and/or to modulate estrogen receptor response may be examined by any assay known in the art. A convenient assay described herein as a non-limiting example utilizes the specific activity of creatine kinase (CK), an estrogen responsive enzyme, as a parameter for the estrogen-like activity of the isoflavone derivatives of the present invention.
The rats were killed by decapitation 24 h after i.p. injection. The various organs were removed and stored at −20° C. until processed for CK activity as previously described (Somjen D. et al. 1998 Hypertension 32:39-45).

[8] = 48 h incubation, read-out: concentration required for 50% inhibition of DNA synthesis (IC50), E304
[9] = 48 h incubation, [3H]-thymidine
[10] = 48 h incubation, [3H]-thymidine, read-out: concentration required for 50% inhibition of DNA synthesis (IC50), VSMC

Sequence of Recombinant ERβ protein (Q92731 whole entry, species assumed): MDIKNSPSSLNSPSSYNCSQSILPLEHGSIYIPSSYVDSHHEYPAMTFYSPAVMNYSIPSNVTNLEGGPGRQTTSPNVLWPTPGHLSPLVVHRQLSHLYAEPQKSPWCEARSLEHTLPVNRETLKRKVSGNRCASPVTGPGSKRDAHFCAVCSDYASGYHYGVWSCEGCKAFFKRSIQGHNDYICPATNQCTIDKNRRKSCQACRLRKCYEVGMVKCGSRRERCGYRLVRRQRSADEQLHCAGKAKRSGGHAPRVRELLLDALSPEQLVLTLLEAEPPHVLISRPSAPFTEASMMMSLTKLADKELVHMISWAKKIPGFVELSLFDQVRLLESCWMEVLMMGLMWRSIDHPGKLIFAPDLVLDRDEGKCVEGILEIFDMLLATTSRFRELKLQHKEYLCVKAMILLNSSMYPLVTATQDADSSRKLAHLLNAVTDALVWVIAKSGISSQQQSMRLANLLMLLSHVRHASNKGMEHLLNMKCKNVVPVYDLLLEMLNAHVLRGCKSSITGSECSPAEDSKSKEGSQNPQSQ

Compound | IC50 [1, 8] | binding activity to ERα (Recombinant ERα protein) | binding activity to ERβ (Recombinant ERβ protein) | CK specific activity (experimental/control), aorta [7] | CK specific activity (experimental/control), diaphysis [7] | CK specific activity (experimental/control), epiphysis [7] | CK specific activity (experimental/control), left ventricle of the heart [7] | CK specific activity (experimental/control), pituitary [7] | CK specific activity (experimental/control), uterus [7] | effect on CK specific activity in rat tissues (in words) [7] | other results
6-carboxymethyl biochanin A daunomycin conjugate [Cbio-daunomycin] | 5 nM | – | – | – | – | – | – | – | – | – | IC50 [2, 9]: 60 nM; IC50 ([3]; 48 h incubation, [3H]-thymidine, read-out: concentration required for 50% inhibition of DNA synthesis (IC50), Colo320): 40 nM
6-carboxymethyl genistein daunomycin conjugate [Cgen-daunomycin] | 60 nM | – | – | – | – | – | – | – | – | – | IC50 ([4]; 48 h incubation, [3H]-thymidine, listed as 6-carboxymethyl genistein daunomycin conjugate, read-out: concentration required for 50% inhibition of DNA synthesis (IC50), VSMC): 20 nM; IC50 [4, 10]: 12 nM; IC50 [2]: 16 nM; IC50 [5]: 70 nM; IC50 [6]: 2000 nM
7-(O)-carboxymethyl daidzein-daunomycin conjugate [Cdaid-daunomycin] | – | – | – | – | – | – | – | – | – | – | IC50 [4, 10]: 22 nM; IC50 ([2]; 48 h incubation, [3H]-thymidine, listed as 7-(O)-carboxymethyl daidzein-daunomycin conjugate): 7 nM; IC50 [2, 9]: 6 nM
COc1ccc(-c2coc3cc(O)c(CC(=O)O)c(O)c3c2=O)cc1 [6-carboxymethyl biochanin A] | – | did not show any significant binding activity | did not show any significant binding activity | 1.63 ± 0.11 | 1.51 ± 0.05 | 1.61 ± 0.17 | 1.91 ± 0.16 | 1.54 ± 0.05 | 0.89 ± 0.12 | increased the CK specific activity in all the rat tissues with the exception of the uterus; also recorded: caused an increase in CK activity in rat tissues | stimulatory response of E2 to CK specific activity on combination with E2 (in words) ([7]; rats treated with E2 plus compound): inhibited in all the tissues
O=C(O)Cc1c(O)cc2occ(-c3ccc(O)cc3)c(=O)c2c1O [6-carboxymethyl genistein] | – | – | – | – | – | – | – | – | – | caused an increase in CK activity in rat tissues | IC50 (Recombinant ERβ protein; recombinant ERβ, [3H]-17β-estradiol 3 nM, read-out: inhibition of binding of [3H]-estradiol to ERβ, relative binding affinity values (IC50)): 200 nM; EC50 ([4]; Homo sapiens, VSMC, [3H]-thymidine incorporation, read-out: induced proliferation, EC50 in VSMC): 3 nM; EC50 ([2]; Homo sapiens, NCI-H295R, [3H]-thymidine incorporation, read-out: induced proliferation, EC50 in NCI-H295R): 2 nM
O=C(O)COc1ccc2c(=O)c(-c3ccc(O)cc3)coc2c1 [7-(O)-carboxymethyl daidzein] | – | did not show any significant binding activity | did not show any significant binding activity | – | – | – | – | – | – | – | –
COc1ccc(-c2coc3cc(O)cc(O)c3c2=O)cc1 [Biochanin A, biochanin A] | – | did not show any significant binding activity | did not show any significant binding activity | 2 ± 0.18 | 1.9 ± 0.23 | 2.38 ± 0.18 | 1.42 ± 0.04 | 1.58 ± 0.05 | 1.42 ± 0.13 | stimulated the CK specific activity in all the rat tissues | –
O=c1c(-c2ccc(O)cc2)coc2cc(O)ccc12 [Daidzein, reference compound] | – | did not show any significant binding activity | did not show any significant binding activity | – | – | – | – | – | – | – | –
COc1cccc2c1C(=O)c1c(O)c3c(c(O)c1C2=O)C[C@@](O)(C(C)=O)C[C@@H]3O[C@H]1C[C@H](N)[C@H](O)[C@H](C)O1 [Daunomycin, daunomycin, reference compound] | 300 nM | – | – | – | – | – | – | – | – | – | IC50 ([1]; read-out: concentration required for 50% inhibition of DNA synthesis (IC50), E304, 48 h incubation): 800 nM; IC50 ([4]; Homo sapiens, VSMC, read-out: concentration required for 50% inhibition of DNA synthesis (IC50), VSMC, 48 h incubation, [3H]-thymidine): 700 nM; IC50 ([4]; read-out: concentration required for 50% inhibition of DNA synthesis (IC50), VSMC, 48 h incubation, [3H]-thymidine): 650 nM; IC50 ([5]; Rattus norvegicus): 850 nM; IC50 ([6]; Rattus norvegicus): 550 nM; IC50 ([3]; Homo sapiens, COLO 320, read-out: concentration required for 50% inhibition of DNA synthesis (IC50), Colo320): 300 nM
C[C@]12CC[C@@H]3c4ccc(O)cc4CC[C@H]3[C@@H]1CC[C@@H]2O [Estradiol, 17β-estradiol] | – | – | – | 2.43 ± 0.06 | 2.75 ± 0.23 | 1.85 ± 0.16 | 1.53 ± 0.13 | 1.45 ± 0.05 | 1.49 ± 0.13 | stimulated the CK specific activity in all the rat tissues | –

— US20050096381A1, “Derivatives of isoflavones” (YEDA & MEDICAL RESEARCH, priority 2002, published 2005)
